Assay results reported in US9320739B2 (AMBIT BIOSCIENCES CORPORATION, priority 2008, dated 2016).
Like-named read-outs stand apart in the source and are kept apart here.

Tested on: panel of 290 distinct kinases (321 in the larger panel), excluding mutant variants
[1] = no asterisk: panel of 290 distinct kinases
[2] = asterisk: panel of 321 distinct kinases, fraction of kinases inhibited 65% or greater
[3] = asterisk: panel of 321 distinct kinases

Description: Competition binding assays used herein were developed, validated and performed as described in Fabian et al., Nature Biotechnology 2005, 23, 329-336. […] The liganded beads were blocked with excess biotin and washed with blocking buffer (SeaBlock (Pierce), 1% BSA, 0.05% Tween 20, 1 mM DTT) to remove unbound ligand and to reduce non-specific binding. […] Test compounds were prepared as 100× stocks in DMSO and rapidly diluted into the aqueous environment. DMSO was added to control assays lacking a test compound. Primary screen interactions were performed in polypropylene 384-well plates in a final volume of 34 μL, while Kd determinations were performed in polystyrene 96-well plates in a final volume of 135 pt. […] The kinase concentration in the eluates was measured by quantitative PCR. Each kinase was tested individually against each compound. Kds were determined using eleven serial threefold dilutions. A selectivity score, which is a quantitative measure of selectivity of a compound against a panel of enzymes, may be calculated for a compound by dividing the number of enzymes for which a compound meets a set criteria, (for example, a binding constant of 100 nM or less), by the total number of enzymes tested. […] (Note, for those compounds tested in a larger kinase panel, as indicated by an asterisk (*) next to the S35 score, the divisor is 321 (i.e. the larger panel contains 321 distinct kinases, excluding mutant variants.)).

Structure (SMILES)	S35 [1]	other results
COc1cc2ncnc(Oc3cccc(NC(=O)Nc4cc(C5(C(F)(F)F)CC5)nn4-c4ccc(C)cc4)c3)c2cc1OC [Ex 346, 1-(3-(6,7-dimethoxyquinazolin-4-yloxy)phenyl)-3-(1-p-tolyl-3-(1-(trifluoromethyl)cyclopropyl)-1H-pyrazol-5-yl)urea]	D (D > 0.40)	
COc1cc2ncnc(Sc3cccc(NC(=O)Nc4cc(C5(C(F)(F)F)CC5)nn4-c4ccc(C)cc4)c3)c2cc1OC [Ex 347, 1-(3-(6,7-dimethoxyquinazolin-4-ylthio)phenyl)-3-(1-p-tolyl-3-(1-(trifluoromethyl)cyclopropyl)-1H-pyrazol-5-yl)urea]	D (D > 0.40)	
COc1cc2ncnc(Sc3cccc(NC(=O)Nc4cc(C(C)(C)C)nn4-c4ccccn4)c3)c2cc1OC [Ex 345, 1-(3-tert-butyl-1-(pyridin-2-yl)-1H-pyrazol-5-yl)-3-(3-(6,7-dimethoxyquinazolin-4-ylthio)phenyl)urea]	B (0.10 < B ≦ 0.20)	
COc1cc2ncnc(Oc3cccc(NC(=O)Nc4cc(C(C)(C)C)nn4-c4cccnc4C)c3)c2cc1OC [Ex 305, 1-(3-tert-butyl-1-(2-methylpyridin-3-yl)-1H-pyrazol-5-yl)-3-(3-(6,7-dimethoxyquinazolin-4-yloxy)phenyl)urea]	D (D > 0.40)	
COc1cc2ncnc(Oc3cccc(NC(=O)Nc4cc(C(C)(C)C)nn4C4CCCCC4)c3)c2cc1OC [Ex 330, 1-(3-tert-butyl-1-cyclohexyl-1H-pyrazol-5-yl)-3-(3-(6,7-dimethoxyquinazolin-4-yloxy)phenyl)urea]	C (0.20 < C ≦ 0.40)	
COc1cc2ncnc(Oc3cccc(NC(=O)Nc4cc(C(C)(C)C)nn4-c4ccncc4)c3)c2cc1OC [Ex 336, 1-(3-tert-butyl-1-(pyridin-4-yl)-1H-pyrazol-5-yl)-3-(3-(6,7-dimethoxyquinazolin-4-yloxy)phenyl)urea]	D (D > 0.40)	
COc1cc2ncnc(Sc3cccc(NC(=O)Nc4cc(C(C)(C)C)nn4CC(C)C)c3)c2cc1OC [Ex 333, 1-(3-tert-butyl-1-isobutyl-1H-pyrazol-5-yl)-3-(3-(6,7-dimethoxyquinazolin-4-ylthio)phenyl)urea]	C (0.20 < C ≦ 0.40)	
COc1cc2ncnc(Oc3cccc(NC(=O)Nc4cc(C5CCC5)nn4-c4ccccc4)c3)c2cc1OC [Ex 355, 1-(3-cyclobutyl-1-phenyl-1H-pyrazol-5-yl)-3-(3-(6,7-dimethoxyquinazolin-4-yloxy)phenyl)urea]	C (0.20 < C ≦ 0.40)	
COc1cc2ncnc(Sc3cccc(NC(=O)Nc4cc(C(C)(C)C)nn4-c4ccncc4)c3)c2cc1OC [Ex 337, 1-(3-tert-butyl-1-(pyridin-4-yl)-1H-pyrazol-5-yl)-3-(3-(6,7-dimethoxyquinazolin-4-ylthio)phenyl)urea]	D (D > 0.40)	
COc1cc2ncnc(Oc3cccc(NC(=O)Nc4cc(C(C)(C)C)nn4-c4ccccc4C)c3)c2cc1OC [Ex 342, 1-(3-tert-butyl-1-o-tolyl-1H-pyrazol-5-yl)-3-(3-(6,7-dimethoxyquinazolin-4-yloxy)phenyl)urea]	D (D > 0.40)	
COc1cc2ncnc(Oc3cccc(NC(=O)Nc4cc(C(C)(C)C)nn4-c4ccnc(C)c4)c3)c2cc1OC [Ex 320, 1-(3-tert-butyl-1-(2-methylpyridin-4-yl)-1H-pyrazol-5-yl)-3-(3-(6,7-dimethoxyquinazolin-4-yloxy)phenyl)urea]	D (D > 0.40)	
COc1cc2ncnc(Oc3cccc(NC(=O)Nc4cc(C(C)(C)C)nn4-c4ccccc4Cl)c3)c2cc1OC [Ex 340, 1-(3-tert-butyl-1-(2-chlorophenyl)-1H-pyrazol-5-yl)-3-(3-(6,7-dimethoxyquinazolin-4-yloxy)phenyl)urea]	D (D > 0.40)	
COc1cc2ncnc(Sc3cccc(NC(=O)Nc4cc(C(C)C)nn4-c4ccccc4)c3)c2cc1OC [Ex 325, 1-(3-(6,7-dimethoxyquinazolin-4-ylthio)phenyl)-3-(3-isopropyl-1-phenyl-1H-pyrazol-5-yl)urea]	C (0.20 < C ≦ 0.40)	
COc1cc2ncnc(Sc3cccc(NC(=O)Nc4cc(C(F)(F)F)nn4-c4cccc(C)c4)c3)c2cc1OC [Ex 339, 1-(3-(6,7-dimethoxyquinazolin-4-ylthio)phenyl)-3-(1-m-tolyl-3-(trifluoromethyl)-1H-pyrazol-5-yl)urea]	C (0.20 < C ≦ 0.40)	
COc1cc2ncnc(Sc3cccc(NC(=O)Nc4cc(C(F)(F)F)n(-c5ccccc5)n4)c3)c2cc1OC [Ex 170, 1-[3-(6,7-dimethoxyquinazolin-4-ylthio)phenyl]-3-[1-phenyl-5-(trifluoromethyl)-1H-pyrazol-3-yl]urea]		S35 [2]: B* (0.10 < B ≦ 0.20)
COc1cc2nc(Cl)nc(Oc3cccc(NC(=O)Nc4cc(C(C)(C)C)on4)c3)c2cc1OC [Ex 310, 1-(5-tert-butylisoxazol-3-yl)-3-(3-(2-chloro-6,7-dimethoxyquinazolin-4-yloxy)phenyl)urea]	A (A ≦ 0.10)	
COc1cc2ncnc(Sc3cccc(NC(=O)Nc4cc(C5CC5)nn4-c4ccccc4)c3)c2cc1OC [Ex 354, 1-(3-cyclopropyl-1-phenyl-1H-pyrazol-5-yl)-3-(3-(6,7-dimethoxyquinazolin-4-ylthio)phenyl)urea]	C (0.20 < C ≦ 0.40)	

Structure (SMILES)	S35 [1]	other results
COc1cc2ncnc(Oc3cccc(NC(=O)Nc4cc(C(C)(F)F)nn4-c4cccnc4)c3)c2cc1OC [Ex 311, 1-(3-(1,1-difluoroethyl)-1-(pyridin-3-yl)-1H-pyrazol-5-yl)-3-(3-(6,7-dimethoxyquinazolin-4-yloxy)phenyl)urea]	C (0.20 < C ≦ 0.40)	
COc1cc2ncnc(Sc3cccc(NC(=O)Nc4cc(C(C)(C)C)nn4C4CCCCC4)c3)c2cc1OC [Ex 331, 1-(3-tert-butyl-1-cyclohexyl-1H-pyrazol-5-yl)-3-(3-(6,7-dimethoxyquinazolin-4-ylthio)phenyl)urea]	B (0.10 < B ≦ 0.20)	
COc1cc2ncnc(Oc3cccc(NC(=O)Nc4cc(C(C)(C)C)nn4-c4ccc(C#N)cc4)c3)c2cc1OC [Ex 328, 1-(3-tert-butyl-1-(4-cyanophenyl)-1H-pyrazol-5-yl)-3-(3-(6,7-dimethoxyquinazolin-4-yloxy)phenyl)urea]	D (D > 0.40)	
COc1cc2ncnc(Sc3cccc(NC(=O)Nc4cc(C(C)(C)C)nn4-c4ccccc4Cl)c3)c2cc1OC [Ex 341, 1-(3-tert-butyl-1-(2-chlorophenyl)-1H-pyrazol-5-yl)-3-(3-(6,7-dimethoxyquinazolin-4-ylthio)phenyl)urea]	C (0.20 < C ≦ 0.40)	
COCCOc1cc2ncnc(Sc3cccc(NC(=O)Nc4cc(C(F)(F)F)nn4-c4ccc(C)cc4)c3)c2cc1OC [Ex 243, 1-{3-[6-methoxy-7-(2-methoxyethoxy)quinazolin-4-ylthio]phenyl}-3-[1-p-tolyl-3-(trifluoromethyl)-1H-pyrazol-5-yl]urea]		S35 [3]: C * (0.20 < C ≦ 0.40)
COc1cc2ncnc(Oc3cccc(NC(=O)Nc4cc(C(C)(C)C)nn4-c4cc[nH]c(=O)c4)c3)c2cc1OC [Ex 313, 1-(3-tert-butyl-1-(2-oxo-1,2-dihydropyridin-4-yl)-1H-pyrazol-5-yl)-3-(3-(6,7-dimethoxyquinazolin-4-yloxy)phenyl)urea]	D (D > 0.40)	
COc1cc2ncnc(Oc3cccc(NC(=O)Nc4cc(C(C)(F)F)nn4-c4ccccc4)c3)c2cc1OC [Ex 318, 1-(3-(1,1-difluoroethyl)-1-phenyl-1H-pyrazol-5-yl)-3-(3-(6,7-dimethoxyquinazolin-4-yloxy)phenyl)urea]	C (0.20 < C ≦ 0.40)	
COc1cc2ncnc(Oc3cccc(NC(=O)Nc4cc(C(C)(C)C)nn4-c4cccnc4)c3)c2cc1OC [Ex 322, 1-(3-tert-butyl-1-(pyridin-3-yl)-1H-pyrazol-5-yl)-3-(3-(6,7-dimethoxyquinazolin-4-yloxy)phenyl)urea]	D (D > 0.40)	
COc1cc2ncnc(Oc3cccc(NC(=O)Nc4cc(C(C)(C)C)nn4C(C)C)c3)c2cc1OC [Ex 334, 1-(3-tert-butyl-1-isopropyl-1H-pyrazol-5-yl)-3-(3-(6,7-dimethoxyquinazolin-4-yloxy)phenyl)urea]	C (0.20 < C ≦ 0.40)	
COc1cc2c(Sc3cccc(NC(=O)Nc4cc(C(C)(C)C)on4)c3)ncnc2cc1OCCN1CCN(CCO)CC1 [Ex 84, 1-(5-tert-butylisoxazol-3-yl)-3-(3-(7-(2-(4-(2-hydroxyethyl)piperazin-1-yl)ethoxy)-6-methoxyquinazolin-4-ylthio)phenyl)urea]		S35 (no asterisk: panel of 290 distinct kinases, fraction of kinases inhibited 65% or greater): D (D > 0.40)
COCCOc1cc2ncnc(Oc3cccc(NC(=O)Nc4cc(C(F)(F)F)nn4-c4ccccc4)c3)c2cc1OC [Ex 221, 1-{3-[6-methoxy-7-(2-methoxyethoxy)quinazolin-4-yloxy]phenyl}-3-[1-phenyl-3-(trifluoromethyl)-1H-pyrazol-5-yl]urea]		S35 [3]: C * (0.20 < C ≦ 0.40)
COc1cc2ncnc(Sc3cccc(NC(=O)Nc4cc(C(C)(F)F)nn4-c4ccccc4)c3)c2cc1OC [Ex 319, 1-(3-(1,1-difluoroethyl)-1-phenyl-1H-pyrazol-5-yl)-3-(3-(6,7-dimethoxyquinazolin-4-ylthio)phenyl)urea]	C (0.20 < C ≦ 0.40)	
COc1cc2ncnc(Oc3cccc(NC(=O)Nc4cc(C5CC5)nn4-c4ccccc4)c3)c2cc1OC [Ex 353, 1-(3-cyclopropyl-1-phenyl-1H-pyrazol-5-yl)-3-(3-(6,7-dimethoxyquinazolin-4-yloxy)phenyl)urea]	C (0.20 < C ≦ 0.40)	
COc1cc2ncnc(Oc3cccc(NC(=O)Nc4cc(C(C)C)nn4-c4ccccc4)c3)c2cc1OC [Ex 324, 1-(3-(6,7-dimethoxyquinazolin-4-yloxy)phenyl)-3-(3-isopropyl-1-phenyl-1H-pyrazol-5-yl)urea]	D (D > 0.40)	
COc1cc2ncnc(Oc3cccc(NC(=O)Nc4cc(C(C)(C)C(F)(F)F)nn4-c4ccccc4)c3)c2cc1OC [Ex 306, 1-(3-(6,7-dimethoxyquinazolin-4-yloxy)phenyl)-3-(1-phenyl-3-(1,1,1-trifluoro-2-methylpropan-2-yl)-1H-pyrazol-5-yl)urea]	D (D > 0.40)	
COc1cc2ncnc(Sc3cccc(NC(=O)Nc4cc(C(F)(F)F)n(C)n4)c3)c2cc1OC [Ex 194, 1-[3-(6,7-dimethoxyquinazolin-4-ylthio)phenyl]-3-[1-methyl-5-(trifluoromethyl)-1H-pyrazol-3-yl]urea]		S35 [2]: C* (0.20 < C ≦ 0.40)
